Results reported in US5866700A, “Solid-phase synthesis of oligoribonucleotides” (Hoechst Aktiengesellschaft, priority 1993, dated 1999).

assay: Stability test: half-life for deprotection in 80% acetic acid (Table 2); type: physicochemical; details: 30 mmolar solution, 20° C., Values +/- 5%
Protocol: (§1) To test the stability, the following uridine derivatives were incubated in 0.05N HCl/MeOH (1:2), 30 mmolar solution, 20° C., pH 2.0 (Table 1) or in 80% acetic acid, 30 mmolar solution, 20° C. (Table 2) and the half-life for deprotection was determined: […]

| Compound | t1/2 (half-life for deprotection) [h] |
| --- | --- |
| CC(OCc1ccc(OC(=O)OCCc2ccc([N+](=O)[O-])cc2)cc1)O[C@@H]1[C@H](O)[C@@H](CO)O[C@H]1n1ccc(=O)[nH]c1=O (stereo partly shown) | 1.73 |
| CC(OCc1ccc(O)c(F)c1)O[C@@H]1[C@H](O)[C@@H](CO)O[C@H]1n1ccc(=O)[nH]c1=O (stereo partly shown) | 0.8 |
| CC(OCc1ccc(OC(=O)OCCc2ccc([N+](=O)[O-])cc2)c(F)c1)O[C@@H]1[C@H](O)[C@@H](CO)O[C@H]1n1ccc(=O)[nH]c1=O (stereo partly shown) | 5.08 |
| CC(OCc1ccc(O)c(Cl)c1)O[C@@H]1[C@H](O)[C@@H](CO)O[C@H]1n1ccc(=O)[nH]c1=O (stereo partly shown) | 0.917 |
| CC(OCc1cc(Cl)c(O)cc1Cl)O[C@@H]1[C@H](O)[C@@H](CO)O[C@H]1n1ccc(=O)[nH]c1=O (stereo partly shown) | 4.17 |
| CC(OCc1cc(Cl)c(OC(=O)OCCc2ccc([N+](=O)[O-])cc2)cc1Cl)O[C@@H]1[C@H](O)[C@@H](CO)O[C@H]1n1ccc(=O)[nH]c1=O (stereo partly shown) | 21.67 |
| CC(OCc1cc(Cl)c(OC(=O)C(C)(C)C)cc1Cl)O[C@@H]1[C@H](O)[C@@H](CO)O[C@H]1n1ccc(=O)[nH]c1=O (stereo partly shown) | 22.58 |

The next lines start with the values.

| t1/2 (half-life for deprotection) [h] | Compound |
| --- | --- |
| 0.35 | CC(OCc1ccc(O)cc1)O[C@@H]1[C@H](O)[C@@H](CO)O[C@H]1n1ccc(=O)[nH]c1=O (stereo partly shown) |
| 18.8 | CC(OCc1c(Cl)cccc1Cl)O[C@@H]1[C@H](O)[C@@H](CO)O[C@H]1n1ccc(=O)[nH]c1=O (stereo partly shown) |
| 1.1 | CC(OCc1ccccc1)O[C@@H]1[C@H](O)[C@@H](CO)O[C@H]1n1ccc(=O)[nH]c1=O (stereo partly shown) [drawing 64] |

assay: Stability test: half-life for deprotection in 0.05N HCl/MeOH (Table 1); type: physicochemical; details: 0.05N HCl/MeOH (1:2), 30 mmolar solution, 20° C., pH 2.0; values +/- 10%
Protocol: as §1

| Compound | t1/2 (half-life for deprotection) |
| --- | --- |
| COc1ccc(COC(C)O[C@@H]2[C@H](O)[C@@H](CO)O[C@H]2n2ccc(=O)[nH]c2=O)cc1 (stereo partly shown) | 1.22 h |
| COc1ccc(COC(C)O[C@@H]2[C@H](O)[C@@H](CO)O[C@H]2n2ccc(=O)[nH]c2=O)cc1OC (stereo partly shown) | 1.37 h |
| CC(OCCN1C(=O)c2ccccc2C1=O)O[C@@H]1[C@H](O)[C@@H](CO)O[C@H]1n1ccc(=O)[nH]c1=O (stereo partly shown) | 14 h |
| CC(OCCc1ccc([N+](=O)[O-])cc1[N+](=O)[O-])O[C@@H]1[C@H](O)[C@@H](CO)O[C@H]1n1ccc(=O)[nH]c1=O (stereo partly shown) | approx. 1200 min |
| CC(OCCS(C)(=O)=O)O[C@@H]1[C@H](O)[C@@H](CO)O[C@H]1n1ccc(=O)[nH]c1=O (stereo partly shown) | 52 h |
| CC(OCCS(=O)(=O)c1ccccc1)O[C@@H]1[C@H](O)[C@@H](CO)O[C@H]1n1ccc(=O)[nH]c1=O (stereo partly shown) | 52 h |
| CC(OCc1ccc([N+](=O)[O-])cc1[N+](=O)[O-])O[C@@H]1[C@H](O)[C@@H](CO)O[C@H]1n1ccc(=O)[nH]c1=O (stereo partly shown) | approx. 14000 min |
| CC(OCCC#N)O[C@@H]1[C@H](O)[C@@H](CO)O[C@H]1n1ccc(=O)[nH]c1=O (stereo partly shown) [CH2 CH2CN] | 56.17 h |
| CC(OCCCl)O[C@@H]1[C@H](O)[C@@H](CO)O[C@H]1n1ccc(=O)[nH]c1=O (stereo partly shown) [CH2CH2Cl] | 10.3 h |

Other lines, results leading:

| t1/2 (half-life for deprotection) | Compound |
| --- | --- |
| 3.7 h | CC(OCCc1ccc([N+](=O)[O-])cc1)O[C@@H]1[C@H](O)[C@@H](CO)O[C@H]1n1ccc(=O)[nH]c1=O (stereo partly shown) |
| 3.83 h | CC(OCCSc1ccccc1)O[C@@H]1[C@H](O)[C@@H](CO)O[C@H]1n1ccc(=O)[nH]c1=O (stereo partly shown) |
| 32.67 h | CC(OCc1ccc([N+](=O)[O-])cc1)O[C@@H]1[C@H](O)[C@@H](CO)O[C@H]1n1ccc(=O)[nH]c1=O (stereo partly shown) |
| 37.33 h | CC(OCc1ccccc1[N+](=O)[O-])O[C@@H]1[C@H](O)[C@@H](CO)O[C@H]1n1ccc(=O)[nH]c1=O (stereo partly shown) |
| 67.17 h | CC(OCC[N+](=O)[O-])O[C@@H]1[C@H](O)[C@@H](CO)O[C@H]1n1ccc(=O)[nH]c1=O (stereo partly shown) [CH2CH2NO2] |
| 2.92 h | CC(OCc1ccccc1)O[C@@H]1[C@H](O)[C@@H](CO)O[C@H]1n1ccc(=O)[nH]c1=O (stereo partly shown) [drawing 52] |
